In publication PMC5902495, “Synthesis of Symmetrical Tetrameric Conjugates of the Radiolanthanide Chelator DOTPI for Application in Endoradiotherapy by Means of Click Chemistry” (Frontiers in Chemistry, 2018):

Test: Stability and protonation constants of Zn^II complexes (pH-potentiometry)
Format: physicochemical
Conditions: 25°C, 0.15 M NaCl
Source text: For determining the protonation constants of DOTPI(Chx)4 and DOTPI three parallel pH-potentiometric titration were made with 0.2 M NaOH in 0.002 M ligand solutions. The stability and protonation constants of the Ca^II and Zn^II complexes formed with DOTPI(Chx)4 and DOTPI ligands have been determined by direct pH-potentiometric titration made at 1:1 and 2:1 metal to ligand concentration ratios. (the concentration of ligands was 0.002 M). For the calculation of the logKML and logKMLHi values, the mL base—pH data used were obtained in the pH range 1.7–12.0.
For pH measurements and titrations, a Metrohm 785 DMP Titrino titration workstation and a Metrohm-6.0233.100 combined electrode were used. Equilibrium measurements were carried out at a constant ionic strength (0.15 M NaCl) in 6 mL samples at 25°C. The solutions were stirred, and constantly purged with N2. The titrations were performed in a pH range of 1.7–11.7. KH-phthalate (pH = 4.005) and borax (pH = 9.177) buffers were used to calibrate the pH meter. For calculation of [H^+] from measured pH values, the method proposed by Irving et al. was used (Irving et al., [1967]). A 0.01 M HCl solution was titrated with the standardized NaOH solution in the presence of 0.1 M NaCl. Differences between the measured (pHread) and calculated pH (–log[H^+]) values were used to obtain the equilibrium H^+ concentration from the pH values, measured in the titration experiments. For the equilibrium calculations, the stoichiometric water ionic product (pKw) is also needed to calculate [H^+] values in basic conditions. The VNaOH – pHread data pairs of the HCl – NaOH titration obtained in the pH range 10.5–12 have been used to calculate the pKw value (pKw = 13.85). For the calculation of the equilibrium constants the program PSEQUAD (Zekany and Nagypal, [1985]) was used.
2. Protonation and complexation equilibria of DOTPI and
The protonation processes of the DOTPI and DOTPI(Chx)4, ligands have been studied by pH-potentiometry. The protonation constants (logKiH) of ligands are defined according to Eq. (1).
The stability and protonation constants of DOTPI and DOTPI(Chx)4 complexes with several metal ions were determined by pH-potentiometric and UV/Vis spectrophotometric, methods.
The stability and protonation constants of the metal complexes formed with the DOTPI and DOTPI(Chx)4, ligands, defined by Eqs. […]
where i = 1, 2, 3…5. The KML and KMHiL values characterizing the formation of DOTPI and DOTPI(Chx)4 complexes of CaII and ZnII have been calculated from the pH-potentiometric titration data obtained at 1:1 metal to ligand concentration ratios. The protonation constants of the complexes Cu(DOTPI) and Cu(DOTPI( Chx)4) were also determined by pH-potentiometric titrations, made at 1:1 metal to ligand concentration ratio. The pH-potentiometric titrations of DOTPI ligand were also performed at 2:1 metal-to-ligand ratio in order to examine the possible formation of dinuclear CaII-, ZnII-, and CuII-DOTPI complexes.
The stability and protonation constants of the dinuclear complexes formed with the DOTPI […]
where i=1 and 2. In calculating the equilibrium constants, the best fit of the mL base – pH data was obtained by assuming the formation of ML, MHL, MH 2L, MH3L, MH4L, MH5L, M2L, M2LH, and M2LH2 complexes with DOTPI and DOTPI(Chx)4.
(also on this page, place not known: ]H][LH[ ]LH[K 1i iH + − = DOTPI( Chx)4 f ormed ]L][M[ ]ML[K ML = ]H][LMH[ ]LMH[K 1i i LMHi + − = i 3 …5. Ca II Zn II -potentiometric pH - metal -to-ligand Cu II-DOTPI ]M][ML[ ]LM[K 2 LM2 = ]H][LHM[ ]LHM[K 1i2 i2 LHM i2 + − = pH MH 4L,) […]

- protonation constant Zn2LH: 5.02 (5)
- protonation constant Zn2LH2: 4.87 (4)
- protonation constant ZnH2L: 5.15 (3)
- protonation constant ZnH3L: 4.40 (4)
- protonation constant ZnH4L: 4.42 (1)
- protonation constant ZnHL: 5.65 (3)
- stability constant of dinuclear complex Zn2L: 3.78 (4)
SMILES: O=C(O)CCP(=O)(O)CN1CCN(CP(=O)(O)CCC(=O)O)CCN(CP(=O)(O)CCC(=O)O)CCN(CP(=O)(O)CCC(=O)O)CC1 [DOTPI, 1,4,7,10-tetraazacyclododecane-1,4,7,10-tetrakis[methylene(2-carboxyethylphosphinic acid)]]
